Laboratory results reported in ChEMBL document CHEMBL5465560, “Selectivity Literature for EUbOPEN Chemogenomic Library” (2024).

What was measured:
[1] = target: Mitotic checkpoint serine/threonine-protein kinase BUB1 (Homo sapiens, UniProt O43683); test: Selectivity interaction (KinomeScan (DiscoverX)) EUB0000229b BUB1; conditions: at 10 µM
[2] = Selectivity interaction (KinomeScan (DiscoverX)) EUB0000595a CDPK1; conditions: at 10 µM
[3] = target: Non-receptor tyrosine-protein kinase TYK2 (Homo sapiens, UniProt P29597); test: Selectivity interaction (KinomeScan (DiscoverX)) EUB0001079a TYK2; conditions: at 1 µM
[4] = target: Glycogen synthase kinase-3 alpha (Homo sapiens, UniProt P49840); test: Selectivity interaction (Kinase panel (Z-LYTE Assay)) EUB0001632a GSK3A; conditions: at 10 µM
[5] = target: T1, Homeodomain-interacting protein kinase 4 (Homo sapiens) (UniProt Q8NE63); test: Selectivity interaction (KinomeScan (DiscoverX)) EUB0000666a HIPK4; conditions: at 10 µM
T1 sequence (whole entry): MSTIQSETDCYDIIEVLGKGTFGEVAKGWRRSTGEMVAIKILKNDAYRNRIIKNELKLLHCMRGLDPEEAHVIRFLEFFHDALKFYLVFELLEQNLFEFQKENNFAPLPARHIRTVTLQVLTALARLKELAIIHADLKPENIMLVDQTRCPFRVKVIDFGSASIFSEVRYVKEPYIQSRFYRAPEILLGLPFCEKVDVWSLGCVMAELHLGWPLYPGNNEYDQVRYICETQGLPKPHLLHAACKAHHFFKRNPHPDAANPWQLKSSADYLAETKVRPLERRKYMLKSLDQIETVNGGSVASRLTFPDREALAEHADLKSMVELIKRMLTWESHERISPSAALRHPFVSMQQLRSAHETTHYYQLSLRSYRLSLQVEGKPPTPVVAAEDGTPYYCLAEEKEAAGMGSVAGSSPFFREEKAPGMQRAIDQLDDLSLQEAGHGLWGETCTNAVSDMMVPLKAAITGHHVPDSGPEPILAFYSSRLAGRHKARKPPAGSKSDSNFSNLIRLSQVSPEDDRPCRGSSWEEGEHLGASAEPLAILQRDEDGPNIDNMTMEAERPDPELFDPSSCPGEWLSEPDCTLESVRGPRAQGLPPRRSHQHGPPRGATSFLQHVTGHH

[6] = target: Bromodomain adjacent to zinc finger domain protein 2B (Homo sapiens) (UniProt Q9UIF8); test: Selectivity interaction (Bromodomain panel (DSF asssay)) EUB0000270b BAZ2B
[7] = target: T2, Cyclin-dependent kinase-like 5 (Homo sapiens) (UniProt O76039); conditions: at 10 µM
T2 sequence (whole entry): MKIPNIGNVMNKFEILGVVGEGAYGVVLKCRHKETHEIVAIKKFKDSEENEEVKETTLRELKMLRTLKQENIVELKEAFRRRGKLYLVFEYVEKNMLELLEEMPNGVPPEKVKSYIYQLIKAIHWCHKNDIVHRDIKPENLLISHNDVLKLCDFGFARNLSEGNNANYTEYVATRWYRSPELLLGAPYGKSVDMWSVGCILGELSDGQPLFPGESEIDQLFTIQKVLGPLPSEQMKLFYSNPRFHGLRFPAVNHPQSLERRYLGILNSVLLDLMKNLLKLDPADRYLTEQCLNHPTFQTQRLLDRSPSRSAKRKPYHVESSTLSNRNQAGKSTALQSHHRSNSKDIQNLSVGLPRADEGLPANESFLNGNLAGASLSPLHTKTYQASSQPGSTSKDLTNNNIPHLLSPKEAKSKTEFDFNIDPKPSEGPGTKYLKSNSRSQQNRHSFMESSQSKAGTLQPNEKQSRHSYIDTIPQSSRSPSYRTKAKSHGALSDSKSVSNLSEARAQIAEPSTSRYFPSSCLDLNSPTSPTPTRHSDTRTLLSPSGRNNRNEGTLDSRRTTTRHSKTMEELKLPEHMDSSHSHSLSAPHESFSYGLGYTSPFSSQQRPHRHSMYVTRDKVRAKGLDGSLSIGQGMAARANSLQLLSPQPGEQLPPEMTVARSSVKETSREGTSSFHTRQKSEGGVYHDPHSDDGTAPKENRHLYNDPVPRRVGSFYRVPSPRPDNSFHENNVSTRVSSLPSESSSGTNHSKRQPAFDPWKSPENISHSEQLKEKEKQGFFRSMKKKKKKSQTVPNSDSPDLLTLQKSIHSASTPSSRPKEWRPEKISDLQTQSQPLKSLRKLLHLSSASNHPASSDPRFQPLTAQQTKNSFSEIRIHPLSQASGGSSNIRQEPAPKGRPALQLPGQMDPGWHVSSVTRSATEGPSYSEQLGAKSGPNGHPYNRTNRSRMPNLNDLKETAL

[8] = target: Tyrosine-protein kinase SYK (Homo sapiens, UniProt P43405); test: Selectivity interaction (Upstate Kinase Profiler service (Millipore)) EUB0000056c SYK; conditions: at 1 µM
[9] = target: Mitogen-activated protein kinase 8 (Homo sapiens, UniProt P45983); test: Selectivity interaction (ProQinase) EUB0000171b MAPK8
Mitogen-activated protein kinase 8, sequence (P45983 whole entry): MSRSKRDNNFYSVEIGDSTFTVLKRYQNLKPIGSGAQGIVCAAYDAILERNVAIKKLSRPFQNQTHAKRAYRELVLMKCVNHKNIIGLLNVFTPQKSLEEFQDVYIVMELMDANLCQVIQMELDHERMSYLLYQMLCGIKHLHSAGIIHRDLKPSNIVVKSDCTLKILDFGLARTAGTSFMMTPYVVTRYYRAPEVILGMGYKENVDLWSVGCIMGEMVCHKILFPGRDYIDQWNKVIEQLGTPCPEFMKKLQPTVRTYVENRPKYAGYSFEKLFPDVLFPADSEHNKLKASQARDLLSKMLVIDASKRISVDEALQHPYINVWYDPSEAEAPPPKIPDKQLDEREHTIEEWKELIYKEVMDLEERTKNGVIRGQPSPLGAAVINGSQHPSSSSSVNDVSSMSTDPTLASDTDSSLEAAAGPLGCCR

[10] = target: Ribosomal protein S6 kinase alpha-5 (Homo sapiens) (UniProt O75582); test: Selectivity interaction (ProQinase) EUB0000171b RPS6KA5
Ribosomal protein S6 kinase alpha-5 (Homo sapiens), sequence (O75582 whole entry, looked up): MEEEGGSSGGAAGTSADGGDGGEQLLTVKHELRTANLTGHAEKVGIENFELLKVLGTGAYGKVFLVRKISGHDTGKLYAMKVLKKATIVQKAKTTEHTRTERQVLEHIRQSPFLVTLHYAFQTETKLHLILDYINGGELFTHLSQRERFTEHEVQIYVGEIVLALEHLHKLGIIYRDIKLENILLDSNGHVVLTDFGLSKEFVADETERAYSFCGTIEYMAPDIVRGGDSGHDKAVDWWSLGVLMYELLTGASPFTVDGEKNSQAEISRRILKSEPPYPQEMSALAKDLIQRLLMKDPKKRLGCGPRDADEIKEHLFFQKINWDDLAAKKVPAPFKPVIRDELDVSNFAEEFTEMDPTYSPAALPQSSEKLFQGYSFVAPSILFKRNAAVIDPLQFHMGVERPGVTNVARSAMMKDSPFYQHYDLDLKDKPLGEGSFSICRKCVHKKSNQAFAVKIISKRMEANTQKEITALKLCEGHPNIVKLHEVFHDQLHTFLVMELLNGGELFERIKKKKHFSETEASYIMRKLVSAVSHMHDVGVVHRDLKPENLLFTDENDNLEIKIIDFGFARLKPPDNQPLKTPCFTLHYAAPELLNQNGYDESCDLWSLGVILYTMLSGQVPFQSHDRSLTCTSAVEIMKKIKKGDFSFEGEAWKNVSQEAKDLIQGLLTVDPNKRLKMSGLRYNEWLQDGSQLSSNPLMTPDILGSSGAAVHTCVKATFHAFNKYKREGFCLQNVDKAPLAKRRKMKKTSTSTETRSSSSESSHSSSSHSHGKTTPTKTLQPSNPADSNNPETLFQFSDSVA

[11] = target: Tau-tubulin kinase 1 (Homo sapiens) (UniProt Q5TCY1); test: Selectivity interaction (ProQinase) EUB0000171b TTBK1
Tau-tubulin kinase 1 (Homo sapiens), sequence (Q5TCY1 whole entry): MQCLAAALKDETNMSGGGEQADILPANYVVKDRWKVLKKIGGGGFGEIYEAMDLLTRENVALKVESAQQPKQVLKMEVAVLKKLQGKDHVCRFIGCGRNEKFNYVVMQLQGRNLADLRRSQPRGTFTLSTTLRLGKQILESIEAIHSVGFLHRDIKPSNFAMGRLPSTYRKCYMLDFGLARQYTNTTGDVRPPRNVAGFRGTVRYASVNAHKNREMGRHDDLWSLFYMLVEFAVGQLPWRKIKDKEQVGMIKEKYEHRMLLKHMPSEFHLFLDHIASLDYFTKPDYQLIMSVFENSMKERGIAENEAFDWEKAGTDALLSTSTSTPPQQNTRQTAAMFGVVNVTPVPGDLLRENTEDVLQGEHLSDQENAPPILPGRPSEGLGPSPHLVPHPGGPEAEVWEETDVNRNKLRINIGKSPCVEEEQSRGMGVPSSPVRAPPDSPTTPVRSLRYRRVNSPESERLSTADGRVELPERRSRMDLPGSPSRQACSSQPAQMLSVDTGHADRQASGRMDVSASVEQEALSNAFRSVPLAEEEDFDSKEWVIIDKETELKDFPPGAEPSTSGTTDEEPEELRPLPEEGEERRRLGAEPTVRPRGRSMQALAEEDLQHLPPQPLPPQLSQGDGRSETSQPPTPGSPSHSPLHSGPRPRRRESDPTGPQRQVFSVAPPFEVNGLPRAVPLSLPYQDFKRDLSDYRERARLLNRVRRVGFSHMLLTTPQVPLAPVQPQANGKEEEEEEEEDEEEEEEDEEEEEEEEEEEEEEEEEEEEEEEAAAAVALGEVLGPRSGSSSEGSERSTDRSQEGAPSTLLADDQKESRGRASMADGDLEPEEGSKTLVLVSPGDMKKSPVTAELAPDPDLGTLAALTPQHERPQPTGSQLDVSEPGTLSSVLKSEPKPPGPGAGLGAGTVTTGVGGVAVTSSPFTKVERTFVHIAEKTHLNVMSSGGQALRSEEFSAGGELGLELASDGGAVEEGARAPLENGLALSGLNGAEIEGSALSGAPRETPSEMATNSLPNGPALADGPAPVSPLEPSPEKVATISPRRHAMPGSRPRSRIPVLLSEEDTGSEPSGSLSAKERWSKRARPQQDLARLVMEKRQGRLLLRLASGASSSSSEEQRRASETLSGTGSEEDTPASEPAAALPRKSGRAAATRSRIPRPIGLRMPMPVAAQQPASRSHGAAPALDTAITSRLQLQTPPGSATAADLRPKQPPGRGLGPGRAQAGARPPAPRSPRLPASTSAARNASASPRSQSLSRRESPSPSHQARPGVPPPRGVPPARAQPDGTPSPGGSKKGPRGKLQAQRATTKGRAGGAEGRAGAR

[12] = target: Receptor-type tyrosine-protein kinase FLT3 (Homo sapiens) (UniProt P36888); test: Selectivity interaction (KinaseProfiler screening (Millipore)) EUB0000601a FLT3; conditions: at 3 µM
Receptor-type tyrosine-protein kinase FLT3 (Homo sapiens), sequence (P36888 whole entry): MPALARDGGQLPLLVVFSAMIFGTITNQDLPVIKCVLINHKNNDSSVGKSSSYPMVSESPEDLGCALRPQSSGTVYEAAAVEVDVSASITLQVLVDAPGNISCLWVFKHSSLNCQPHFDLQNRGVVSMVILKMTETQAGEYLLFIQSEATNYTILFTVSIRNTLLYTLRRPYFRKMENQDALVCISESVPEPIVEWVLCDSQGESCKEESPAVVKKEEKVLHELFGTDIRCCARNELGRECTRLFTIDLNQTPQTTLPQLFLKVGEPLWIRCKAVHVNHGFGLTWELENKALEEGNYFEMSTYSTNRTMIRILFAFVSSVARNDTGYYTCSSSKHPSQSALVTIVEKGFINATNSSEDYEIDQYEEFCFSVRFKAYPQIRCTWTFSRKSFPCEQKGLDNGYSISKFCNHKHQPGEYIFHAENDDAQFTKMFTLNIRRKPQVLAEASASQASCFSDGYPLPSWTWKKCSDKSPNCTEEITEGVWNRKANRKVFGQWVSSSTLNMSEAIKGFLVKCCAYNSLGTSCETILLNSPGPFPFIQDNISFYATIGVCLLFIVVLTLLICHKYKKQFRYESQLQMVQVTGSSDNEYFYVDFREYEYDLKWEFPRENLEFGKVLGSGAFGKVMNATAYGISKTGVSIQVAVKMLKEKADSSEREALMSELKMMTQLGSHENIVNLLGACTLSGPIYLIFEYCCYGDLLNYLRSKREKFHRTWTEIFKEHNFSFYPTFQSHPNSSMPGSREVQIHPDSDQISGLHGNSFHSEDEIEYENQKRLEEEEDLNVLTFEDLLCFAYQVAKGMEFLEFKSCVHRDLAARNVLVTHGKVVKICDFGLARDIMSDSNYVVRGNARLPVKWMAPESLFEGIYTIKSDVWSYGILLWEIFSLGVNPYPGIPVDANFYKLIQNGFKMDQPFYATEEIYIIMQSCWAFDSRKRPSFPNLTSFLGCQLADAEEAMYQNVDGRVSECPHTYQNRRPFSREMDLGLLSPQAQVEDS

[13] = target: Mitogen-activated protein kinase kinase kinase 1 (Homo sapiens, UniProt Q13233); test: Selectivity interaction (KinomeScan (DiscoverX)) EUB0000618a MAP3K1; conditions: at 10 µM
Aurora kinase B = Aurora kinase B (Homo sapiens, UniProt Q96GD4); test: Selectivity interaction (Kinase panel (Invitrogen)) EUB0000639a AURKB; conditions: at 200 nM
Aurora kinase B, sequence (Q96GD4 whole entry): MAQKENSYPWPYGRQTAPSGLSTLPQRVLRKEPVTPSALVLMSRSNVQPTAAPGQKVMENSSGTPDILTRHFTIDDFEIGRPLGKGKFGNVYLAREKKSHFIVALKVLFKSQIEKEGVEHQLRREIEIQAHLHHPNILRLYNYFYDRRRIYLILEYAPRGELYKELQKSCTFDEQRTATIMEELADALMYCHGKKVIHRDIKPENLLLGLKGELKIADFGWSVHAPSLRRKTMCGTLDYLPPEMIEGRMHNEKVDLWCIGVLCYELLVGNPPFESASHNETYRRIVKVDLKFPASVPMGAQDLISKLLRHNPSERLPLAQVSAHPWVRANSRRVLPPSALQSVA

[14] = target: ALK tyrosine kinase receptor (Homo sapiens, UniProt Q9UM73); test: Selectivity interaction (KinomeScan (DiscoverX)) EUB0000092b ALK; conditions: at 10 µM

Mitotic checkpoint serine/threonine-protein kinase BUB1, sequence (O43683 whole entry, looked up): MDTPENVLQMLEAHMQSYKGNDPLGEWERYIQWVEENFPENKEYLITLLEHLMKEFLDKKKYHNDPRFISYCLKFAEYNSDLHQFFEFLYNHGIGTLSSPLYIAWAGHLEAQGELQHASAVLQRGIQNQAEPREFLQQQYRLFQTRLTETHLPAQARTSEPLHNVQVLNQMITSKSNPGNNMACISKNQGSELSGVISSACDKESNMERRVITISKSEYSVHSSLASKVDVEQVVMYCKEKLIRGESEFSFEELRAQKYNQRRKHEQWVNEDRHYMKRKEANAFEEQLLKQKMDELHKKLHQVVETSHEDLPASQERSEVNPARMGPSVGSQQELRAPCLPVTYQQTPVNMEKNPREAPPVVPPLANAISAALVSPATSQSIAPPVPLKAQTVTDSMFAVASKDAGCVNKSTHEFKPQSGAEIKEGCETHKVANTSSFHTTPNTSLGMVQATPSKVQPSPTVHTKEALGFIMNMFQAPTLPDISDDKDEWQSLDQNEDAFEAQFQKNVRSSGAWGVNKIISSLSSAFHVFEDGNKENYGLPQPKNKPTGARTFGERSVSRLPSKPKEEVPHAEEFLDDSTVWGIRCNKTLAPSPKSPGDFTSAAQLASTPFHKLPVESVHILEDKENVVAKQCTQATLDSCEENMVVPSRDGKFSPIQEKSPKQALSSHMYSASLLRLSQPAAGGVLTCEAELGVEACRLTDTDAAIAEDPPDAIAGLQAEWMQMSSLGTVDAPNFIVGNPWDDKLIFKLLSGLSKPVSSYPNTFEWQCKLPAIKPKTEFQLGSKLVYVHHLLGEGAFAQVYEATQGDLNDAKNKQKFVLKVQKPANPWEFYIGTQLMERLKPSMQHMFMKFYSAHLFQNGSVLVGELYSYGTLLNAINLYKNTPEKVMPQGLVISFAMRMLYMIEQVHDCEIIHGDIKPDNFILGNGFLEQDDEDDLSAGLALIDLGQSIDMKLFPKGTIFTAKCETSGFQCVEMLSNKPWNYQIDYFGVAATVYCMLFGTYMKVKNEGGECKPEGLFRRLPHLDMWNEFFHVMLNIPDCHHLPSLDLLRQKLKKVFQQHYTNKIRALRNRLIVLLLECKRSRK

For `COc1cc(N(C)c2ccnc3ccc(C(F)(F)F)cc23)cc(OC)c1OC`, the % binding [1] was 98%.
For `COCC(=O)NC/C=C/c1ccc2ncnc(Nc3ccc(Oc4ccc(C)nc4)c(C)c3)c2c1` [CP-724714], the % of control [2] was 25%.
`Nc1cnc(N2CCc3cc(S(=O)(=O)Nc4c(F)cc(Cl)cc4F)cc(N4CCCC4=O)c32)nc1` [TP-020n] gave a % of control [3] of 100%.
In the case of `Cn1cc(-n2cnc3c(NCc4nc5cc(Cl)c(Cl)cc5[nH]4)nc(N4CCOCC4)nc32)cn1`, the % of control [4] is reported as 82.2%.
For `O=C(NOC[C@H](O)CO)c1ccc(F)c(F)c1Nc1ccc(I)cc1F`, the % of control [5] was 100%.
With `Cc1cc(CN)cc(C)c1-c1ncn(C)c1-c1cncn1C` the dTM [6] was -0.9 K.
Work on `Cc1cc([C@@H](C)Nc2ccccc2C(=O)O)c2nc(N3CCOCC3)cc(=O)n2c1` [AZD-6482] yielded a % of control [7] of 74%.
`Cc1ccc(-c2ccc3c(ccc4sc5c(c43)NC[C@@H](C)NC5=O)n2)cn1` showed a % of inhibition [8] of -7%.
`C=CC(=O)Nc1cccc(C(=O)Nc2ccc(Nc3cc(-c4[nH]c(SC)nc4C)ccn3)cc2)c1` showed a % of control ([9]; at 1 µM) of 5%, a % of control ([9]; at 5 µM) of 1% and a % of control ([10]; at 1 µM) of 94%. The % of control ([10]; at 5 µM) was 87%, the % of control ([11]; at 1 µM) was 102% and the % of control ([11]; at 5 µM) was 106%.
For `CCc1cc(Nc2nccc(-c3c(-c4ccc(OC)c(C(=O)Nc5c(F)cccc5F)c4)nc4ccccn34)n2)c(OC)cc1N1CCC(N2CCN(S(C)(=O)=O)CC2)CC1`, the % of inhibition [12] was 57%.
With `O[C@H]1CC[C@H](Nc2ncc3nc(Nc4c(F)cc(F)cc4F)n([C@H]4CCOC4)c3n2)CC1` the % of control [13] was 91%.
`CC[C@@H]1[C@H](F)C(=O)N[C@@H]1COc1nccc2cc(C(N)=O)c(OC)cc12` [ZIMLOVISERTIB] gave a % of inhibition (Aurora kinase B) of 11.3%.
`CCC(=O)N1CCN(c2ccc(-n3c(=O)ccc4cnc5ccc(-c6cnc7ccccc7c6)cc5c43)cc2C(F)(F)F)CC1` showed a % of control [14] of 80%.
